# Measured values: publication PMC12196455, “Effect of Tegoprazan on Tacrolimus and Mycophenolate Levels in Kidney Transplant Recipients: A Randomized Controlled Study Using a Smart Trial Platform” (Pharmaceuticals, 2025)
# Key:
# [1] = Mycophenolate (mycophenolic acid) trough level (12 h post-dose, PETINIA immunoassay) in the randomized trial of tegoprazan vs pantoprazole; assay type: in vivo, human (kidney transplant recipients); conditions: for Mycophenolate trough level: mean ± SD
# Text: (§1) This study was a prospective, open-label, randomized controlled trial conducted on KTRs receiving tacrolimus, mycophenolate, and steroids. This study was registered at the Clinical Research Information Service (CRIS), Republic of Korea (Registration No. KCT 0010481, registration date: 20 May 2025). Data analysis took place at Kyungpook National University Hospital, Republic of Korea, from August 2022 to May 2023. The trial adhered to the approval guidelines of the Institutional Review Board of Kyungpook National University Hospital (IRB No. 2022-02-013, approval date: 31 March 2022).
# (§2) Patients were randomly assigned to either the P-CAB (tegoprazan 50 mg) group or the PPI (pantoprazole 20 mg) group. Enrolled KTRs were scheduled for four visits at baseline, 4, 8, and 12 weeks post-randomization. The dosage of immunosuppressants remained unchanged throughout the 12-week study period. Blood tests, including measurements of immunosuppressant trough levels, serum creatinine levels, estimated glomerular filtration rate (eGFR), and vital signs, were conducted at each visit.
# (§3) The primary outcome was to compare changes in drug concentrations of tacrolimus and mycophenolate following the administration of tegoprazan in KTRs.
# (§4) Trough levels of tacrolimus and mycophenolate were measured at 12 h post-dose, following standard clinical practice for therapeutic drug monitoring in transplant recipients. Blood samples were collected at scheduled morning visits, and the 12 h interval was confirmed using electronic pillbox adherence data or patient interviews. Tacrolimus concentrations were measured using the Dimension® TAC Flex® reagent cartridge (Siemens Healthcare Diagnostics Inc., Newark, NJ, USA) on the Siemens Dimension® Integrated Chemistry System, employing a homogeneous chemiluminescent immunoassay (CLIA) method. Mycophenolic acid concentrations were measured using the Dimension® MPA Flex® reagent cartridge (Siemens Healthcare Diagnostics Inc., Newark, USA) on the same system, based on a particle-enhanced turbidimetric inhibition immunoassay (PETINIA) method. All assays were conducted in the Department of Laboratory Medicine at the study hospital.
# [2] = Time in therapeutic range (TTR) analysis of tacrolimus and mycophenolate; assay type: in vivo, human (kidney transplant recipients); conditions: across all visits; result in words
# Method: Continuous variables were expressed as mean ± standard deviation, while categorical variables were presented as numbers and percentages. For normally distributed data, t-tests were utilized; for non-normally distributed data, the Mann–Whitney U test was applied. Intragroup variations between baseline and 12 weeks were analyzed using paired t-tests. Differences in the frequency of transplant outcomes were assessed using the χ^2 test or Fisher’s exact test. Differences in GI symptom questionnaire scores, assessed via e-diary surveys, were analyzed using t-tests or the Mann–Whitney U test, as appropriate. We conducted a TTR analysis for both tacrolimus and mycophenolate to evaluate the potential effects of tegoprazan on immunosuppressant stability. The predefined therapeutic range was set at […] for tacrolimus and at 1–3.5 µg/mL for mycophenolate. TTR was calculated as the proportion of time each drug level remained within the therapeutic window across the study period. All statistical analyses were performed using IBM SPSS Statistics 25 for Windows, […]. A p-value of <0.05 was considered statistically significant.
# [3] = result in words, cited from earlier work
# [4] = Transplant outcomes (eGFR, de novo DSA, BPAR, allograft loss); assay type: in vivo, human (kidney transplant recipients); conditions: for eGFR: mean ± SD; for Allograft Loss / BPAR: during the 12-week study period
# Method: Patients were randomly assigned to either the P-CAB (tegoprazan 50 mg) group or the PPI (pantoprazole 20 mg) group. Enrolled KTRs were scheduled for four visits at baseline, 4, 8, and 12 weeks post-randomization. The dosage of immunosuppressants remained unchanged throughout the 12-week study period. Blood tests, including measurements of immunosuppressant trough levels, serum creatinine levels, estimated glomerular filtration rate (eGFR), and vital signs, were conducted at each visit. The collected data included patient demographics such as gender, age, height, weight, blood tacrolimus, mycophenolate concentrations, kidney function, liver function tests, allograft loss, and acute rejection episodes. We collected DSA information. DSA was identified using the Luminex single-antigen assay (LSA). […] The secondary outcome included evaluating transplant outcomes and GI symptoms using questionnaires. The transplant outcomes assessed were changes in eGFR, biopsy-proven acute rejection (BPAR), allograft loss, and de novo DSA during the study period. De novo DSA was defined as the new appearance of antibodies against mismatched donor human leukocyte antigen (HLA) not present at baseline.
# [5] = GI symptom questionnaires (GERD-HRQL, RDQ) via electronic diary app; assay type: in vivo, human (kidney transplant recipients); parameters: key to GERD-HRQL score: sum of 10 items each scored 0-5; higher = poorer quality of life; conditions: mean ± SD
# Method: Changes in GI symptoms were measured and recorded using a self-developed electronic diary app installed on participants’ mobile phones. This app facilitated the assessment of GI symptoms through the Gastroesophageal Reflux Disease–Health-Related Quality of Life (GERD-HRQL) and Reflux Disease Questionnaire (RDQ). The GERD-HRQL scale comprises 10 items, addressing both GI symptoms and the patient’s overall condition. Each item is scored on a scale from 0 to 5, with higher scores indicating a poorer quality of life. The RDQ is a 6-item self-administered questionnaire designed to evaluate the severity and frequency of heartburn sensation, gastric acid regurgitation, and dyspepsia.
# The secondary outcome included evaluating transplant outcomes and GI symptoms using questionnaires. The transplant outcomes assessed were changes in eGFR, biopsy-proven acute rejection (BPAR), allograft loss, and de novo DSA during the study period. De novo DSA was defined as the new appearance of antibodies against mismatched donor human leukocyte antigen (HLA) not present at baseline.
# [6] = Adverse event monitoring; assay type: in vivo, human (kidney transplant recipients); conditions: 12 weeks; for Overall incidence of AEs: p = 0.032 between groups
# Method: Safety evaluations were conducted through comprehensive monitoring, including physical examinations, clinical laboratory tests, vital signs, and the documentation of adverse events (AEs). Participants were encouraged to voluntarily report AEs regularly throughout the study.
# [7] = result in words, cited from earlier work; remark: listed apart in the source
# [8] = Tacrolimus blood trough level (12 h post-dose, chemiluminescent immunoassay) in the randomized trial of tegoprazan vs pantoprazole; assay type: in vivo, human (kidney transplant recipients); conditions: for Tacrolimus trough level: mean ± SD
# Text: as §1, §2, §3, §4
# [9] = parameters: method as in PMID 34246485; conditions: result in words; cited from earlier work
# [10] = P-CAB group (tegoprazan 50 mg, n = 26), Baseline
# [11] = P-CAB group (tegoprazan 50 mg, n = 26), Week 4
# [12] = P-CAB group (tegoprazan 50 mg, n = 26), Week 8
# [13] = P-CAB group (tegoprazan 50 mg, n = 26), Week 12
# [14] = PPI group (pantoprazole 20 mg, n = 25), Baseline
# [15] = PPI group (pantoprazole 20 mg, n = 25), Week 4
# [16] = PPI group (pantoprazole 20 mg, n = 25), Week 8
# [17] = PPI group (pantoprazole 20 mg, n = 25), Week 12
# [18] = Baseline, higher score = poorer quality of life
# [19] = 12-week follow-up in KTRs, result in words
smiles,measurement,setting,value
"COc1c(C)c2c(c(O)c1C/C=C(\C)CCC(=O)O)C(=O)OC2 [Mycophenolate, mycophenolate]",Mycophenolate trough level,[1]; [10],2.3 ± 1.4 µg/mL
same,Mycophenolate trough level,[1]; [11],2.5 ± 1.1 µg/mL
same,Mycophenolate trough level,[1]; [12],2.8 ± 1.8 µg/mL
same,Mycophenolate trough level,[1]; [13],2.7 ± 1.4 µg/mL
same,Mycophenolate trough level,[1]; [14],2.6 ± 1.3 µg/mL
same,Mycophenolate trough level,[1]; [15],2.7 ± 1.1 µg/mL
same,Mycophenolate trough level,[1]; [16],2.7 ± 2.4 µg/mL
same,Mycophenolate trough level,[1]; [17],2.6 ± 1.4 µg/mL
same,"Time in therapeutic range (TTR), P-CAB vs PPI group",[2],comparable between the two groups
CNCc1cc(-c2ccccc2F)n(S(=O)(=O)c2cccnc2)c1 [vonoprazan],Effect on tacrolimus concentration,"[3]; KTRs, switching from rabeprazole to vonoprazan, two retrospective studies",increased
same,Effect on tacrolimus trough levels,"[3]; conversion from rabeprazole to vonoprazan, regardless of CYP3A5 genotypes",did not alter
"COc1ccnc(C[S+]([O-])c2nc3ccc(OC(F)F)cc3[nH]2)c1OC (stereo not shown) [PPI, pantoprazole]",eGFR,[4]; Baseline,57.7 ± 14.9 mL/min/1.73 m^2
same,eGFR,[4]; Week 4,60.1 ± 14.8 mL/min/1.73 m^2
same,eGFR,[4]; Week 8,63.6 ± 14.1 mL/min/1.73 m^2
same,eGFR,[4]; Week 12,60.6 ± 14.7 mL/min/1.73 m^2
same,Allograft Loss,[4],0 number
same,BPAR,[4],0 number
same,RDQ score,[5]; Baseline,3.2 ± 3.3
same,GERD-HRQL score,[5]; [18],2.8 ± 2.3
same,GERD-HRQL score,[5]; Week 4,0.7 ± 1.2
same,RDQ score,[5]; Week 4,0.3 ± 0.9
same,GERD-HRQL score,[5]; Week 8,0.9 ± 1.8
same,RDQ score,[5]; Week 8,0.4 ± 1.0
same,GERD-HRQL score,[5]; Week 12,0.5 ± 1.1
same,RDQ score,[5]; Week 12,0.7 ± 2.0
same,AE: Abdominal discomfort,[6],2 (8.0) number (%)
same,AE: Arthralgia,[6],0 (0.0) number (%)
same,AE: COVID-19,[6],2 (8.0) number (%)
same,AE: Constipation,[6],0 (0.0) number (%)
same,AE: Diarrhea,[6],0 (0.0) number (%)
same,AE: Headache,[6],1 (4.0) number (%)
same,AE: Hypertension,[6],0 (0.0) number (%)
same,AE: Hypoglycemia,[6],0 (0.0) number (%)
same,AE: Myalgia,[6],1 (4.0) number (%)
same,"AE: Nausea, vomiting",[6],0 (0.0) number (%)
same,"AE: Productive cough, sputum",[6],0 (0.0) number (%)
same,AE: Pyrexia,[6],1 (4.0) number (%)
same,AE: Toothache,[6],1 (4.0) number (%)
same,AE: Upper respiratory tract infection,[6],1 (4.0) number (%)
same,AE: Urinary tract infection,[6],1 (4.0) number (%)
same,AE: Vertigo,[6],1 (4.0) number (%)
same,Participants with AEs,[6],7 (28.0) number (%)
same,Participants with SAEs,[6],0 (0.0) number (%)
same,Withdrawal due to AEs,[6],0 (0.0) number (%)
same,Overall incidence of AEs,[6],28.0%
same,Effect on trough levels of tacrolimus and cyclosporine,"[7]; 12 solid organ transplant patients, five consecutive days of therapy",did not affect
same,Effect on serum trough levels of tacrolimus,"[7]; liver transplant recipients, co-administration over one year",does not influence
"Cc1nc2cc(C(=O)N(C)C)cc(O[C@H]3CCOc4cc(F)cc(F)c43)c2[nH]1 [P-CAB, tegoprazan]",Effect on blood trough level of tacrolimus,[8]; [19],does not alter
same,Effect on blood trough level of mycophenolate,[1]; [19],does not alter
same,eGFR,[4]; Baseline,62.8 ± 17.1 mL/min/1.73 m^2
same,eGFR,[4]; Week 4,61.8 ± 13.0 mL/min/1.73 m^2
same,eGFR,[4]; Week 8,60.6 ± 12.8 mL/min/1.73 m^2
same,eGFR,[4]; Week 12,63.5 ± 16.5 mL/min/1.73 m^2
same,Allograft Loss,[4],0 number
same,BPAR,[4],0 number
same,RDQ score,[5]; Baseline,4.7 ± 4.7
same,GERD-HRQL score,[5]; [18],4.9 ± 4.3
same,GERD-HRQL score,[5]; Week 4,0.9 ± 1.4
same,RDQ score,[5]; Week 4,1.0 ± 2.1
same,GERD-HRQL score,[5]; Week 8,0.7 ± 1.0
same,RDQ score,[5]; Week 8,0.6 ± 1.2
same,GERD-HRQL score,[5]; Week 12,0.7 ± 1.6
same,RDQ score,[5]; Week 12,0.7 ± 1.9
same,AE: Abdominal discomfort,[6],3 (11.5) number (%)
same,AE: Arthralgia,[6],1 (3.8) number (%)
same,AE: Constipation,[6],2 (7.7) number (%)
same,AE: Diarrhea,[6],5 (19.2) number (%)
same,AE: Headache,[6],0 (0.0) number (%)
same,AE: Hypertension,[6],4 (15.4) number (%)
same,AE: Hypoglycemia,[6],1 (3.8) number (%)
same,AE: Myalgia,[6],0 (0.0) number (%)
same,"AE: Nausea, vomiting",[6],3 (11.5) number (%)
same,"AE: Productive cough, sputum",[6],4 (15.4) number (%)
same,AE: Pyrexia,[6],0 (0.0) number (%)
same,AE: Toothache,[6],0 (0.0) number (%)
same,AE: Upper respiratory tract infection,[6],2 (7.7) number (%)
same,AE: Urinary tract infection,[6],0 (0.0) number (%)
same,AE: Vertigo,[6],0 (0.0) number (%)
same,Participants with AEs,[6],15 (57.7) number (%)
same,Participants with SAEs,[6],2 (7.7) number (%)
same,Withdrawal due to AEs,[6],0 (0.0) number (%)
same,Cases of serious adverse events (SAEs),[6]; none related to the study drug,two
same,Overall incidence of AEs,[6],57.7%
same,AE: COVID-19,"[6]; human, in vivo",0 (0.0) number (%)
same,Effect of food intake on pharmacokinetic and pharmacodynamic properties,[9],unaffected by food intake
"C=CC[C@@H]1/C=C(\C)C[C@H](C)C[C@H](OC)[C@H]2O[C@@](O)(C(=O)C(=O)N3CCCC[C@H]3C(=O)O[C@H](/C(C)=C/[C@@H]3CC[C@@H](O)[C@H](OC)C3)[C@H](C)[C@@H](O)CC1=O)[C@H](C)C[C@@H]2OC [Tacrolimus, tacrolimus]",Tacrolimus trough level,[8]; [10],5.0 ± 1.6 ng/mL
same,Tacrolimus trough level,[8]; [11],5.3 ± 1.3 ng/mL
same,Tacrolimus trough level,[8]; [12],6.3 ± 1.9 ng/mL
same,Tacrolimus trough level,[8]; [13],5.5 ± 1.6 ng/mL
same,Tacrolimus trough level,[8]; [14],5.4 ± 1.4 ng/mL
same,Tacrolimus trough level,[8]; [15],5.5 ± 1.6 ng/mL
same,Tacrolimus trough level,[8]; [16],5.7 ± 2.4 ng/mL
same,Tacrolimus trough level,[8]; [17],5.8 ± 2.0 ng/mL
same,"Time in therapeutic range (TTR), P-CAB vs PPI group",[2],comparable between the two groups
